Results as given in article PMC10529594, “Strasseriolides display in vitro and in vivo activity against trypanosomal parasites and cause morphological and size defects in Trypanosoma cruzi” (PLOS Neglected Tropical Diseases, 2023).
Where “and” joins values, the source holds several entries; their conditions need not be identical. Equal values may be shown once.

What was measured:
T. cruzi trypomastigotes = assay: T. cruzi trypomastigote viability / rate of action assay (CellTiter-Glo bioluminescence); assay type: cell-based, Trypanosoma cruzi; settings: for EC50: Trypanosoma cruzi; for Hill slope: Trypomastigotes
Procedure: Tulahuen T. cruzi trypomastigotes were recovered 6 days post infection from the supernatant of harvested infected L6 cells cultures after 3 hours at 37°C. 90 μL of parasite culture at a density of 5 × 10^6 cells in RPMI 1640 media were dispensed into 96 Nunc flat bottom assay plates containing 10 μL of each compound.
Parasite viability was assessed upon 24, 48 and 72 hour incubation at 37°C in 5% CO2 by adding 50 μL of CellTiter-Glo viability reagent to white 96-well microplates. After signal stabilization, bioluminescence was read. Compound concentrations ranged from 0.1 μM to 50 μM and final maximal DMSO percentage in the well was 0.05%. Results were normalized to […] control columns in each plate.

[1] = tested on: intracellular T. cruzi amastigotes; assay: Rate of kill, intracellular T. cruzi amastigotes (CPRG, 96-well); assay type: cell-based, Trypanosoma cruzi; settings: Amastigotes; for EC50: Trypanosoma cruzi
Procedure: For rate of kill experiments, in vitro activity against intracellular T. cruzi amastigotes was analyzed at early time points: 24, 48 and 72 hours. The standard colorimetric transgenic assay was established in a 96-well format, with serial dilutions of compounds and 0.05% as the final maximal DMSO percentage per well. In these experiments L6 host cells were included as negative controls and CPRG conversion was monitored at 585 nm using a Versamax microplate reader (Molecular devices).

[2] = tested on: transgenic Trypanosoma cruzi Brazil strain expressing firefly luciferase; assay: In vivo efficacy, acute T. cruzi infection in BALB/c mice (luciferase imaging); settings: 30 mg/kg i.p. 5 days
Procedure: In vivo experiments were performed at the Anti-infectives Screening Core Services facility of the New York University School of Medicine. The transgenic Trypanosoma cruzi Brazil strain expressing firefly luciferase was used. Groups of five female BALB/c mice were infected with 2 × 10^6 T. cruzi trypomastigotes. […] Quantification is based on luciferase activity of the parasites after i.p. injection of 150 mg/Kg D-luciferin potassium-salt in PBS. Luminescence is measured on the fifth day using an IVIS Lumina II imager.

T. cruzi epimastigotes = assay: FACS analysis of T. cruzi epimastigotes (cell cycle, size and complexity); assay type: cell-based, Trypanosoma cruzi; settings: for Foward Scatter (FSC) - Geometric Mean, single experiment / Foward Scatter (FSC) - Geometric Mean, Average / size reduction with respect to untreated parasites: 72 h
Procedure: FACS analysis was used to study cell cycle progression and cellular parameters such as size and complexity. 5 × 10^6 T. cruzi epimastigotes were harvested by centrifugation at 1,000×g and 4°C after 72 hours of incubation in a 6-well plate in the presence and in absence of test compounds. Pellets of cells were washed with 5 mL of PBS and fixed in a solution of 70% ice-cold ethanol/PBS at -20°C overnight. Cells were then collected by centrifugation, washed with PBS and stained with 40 μg/mL of propidium iodide in PBS containing 10 μg/mL of RNase A at 37°C for 30 minutes. Fluorescence was monitored with a Becton Dickinson FACSCalibur using BD CellQuest Pro version 4.0.2 software with a total of 10,000 events acquired for each sample. The different cell populations as well as mean cellular parameters were determined by FlowJo software.

[3] = design: method as in PMID 34865639; settings: cited from earlier work
Plasmodium berghei = tested on: Plasmodium berghei; design: method as in PMID 34865639; settings: Plasmodium berghei murine model; cited from earlier work
[4] = 72-hour drug exposure, FACS with PI staining, EC30, average
[5] = 72-hour drug exposure, FACS with PI staining, EC30, single replicates
[6] = 72-hour drug exposure, FACS with PI staining, EC70, average
[7] = 72-hour drug exposure, FACS with PI staining, EC70, single replicates

## O=C(Cn1ccnc1[N+](=O)[O-])NCc1ccccc1 [Benznidazole, benznidazole]
T. cruzi trypomastigotes; 24 h, 0.0976562 µM, untreated 165925
  RLU Average, trypomastigote viability: 168859 RLU
T. cruzi trypomastigotes; 24 h, 0.195312 µM, untreated 165925
  RLU Average, trypomastigote viability: 163337 RLU
T. cruzi trypomastigotes; 24 h, 0.390625 µM, untreated 165925
  RLU Average, trypomastigote viability: 166320 RLU
T. cruzi trypomastigotes; 24 h, 0.78125 µM, untreated 165925
  RLU Average, trypomastigote viability: 165144 RLU
T. cruzi trypomastigotes; 24 h, 1.5625 µM, untreated 165925
  RLU Average, trypomastigote viability: 164063 RLU
T. cruzi trypomastigotes; 24 h, 3.125 µM, untreated 165925
  RLU Average, trypomastigote viability: 161383 RLU
T. cruzi trypomastigotes; 24 h, 6.25 µM, untreated 165925
  RLU Average, trypomastigote viability: 134179 RLU
T. cruzi trypomastigotes; 24 h, 12.5 µM, untreated 165925
  RLU Average, trypomastigote viability: 39621 RLU
T. cruzi trypomastigotes; 24 h, 25 µM, untreated 165925
  RLU Average, trypomastigote viability: 10652 RLU
T. cruzi trypomastigotes; 24 h, 50 µM, untreated 165925
  RLU Average, trypomastigote viability: 5606 RLU
T. cruzi trypomastigotes; 48 h, 0.0976562 µM, untreated 141819
  RLU Average, trypomastigote viability: 139946 RLU
T. cruzi trypomastigotes; 48 h, 0.195312 µM, untreated 141819
  RLU Average, trypomastigote viability: 134140 RLU
T. cruzi trypomastigotes; 48 h, 0.390625 µM, untreated 141819
  RLU Average, trypomastigote viability: 131074 RLU
T. cruzi trypomastigotes; 48 h, 0.78125 µM, untreated 141819
  RLU Average, trypomastigote viability: 112587 RLU
T. cruzi trypomastigotes; 48 h, 1.5625 µM, untreated 141819
  RLU Average, trypomastigote viability: 83947 RLU
T. cruzi trypomastigotes; 48 h, 3.125 µM, untreated 141819
  RLU Average, trypomastigote viability: 48357 RLU
T. cruzi trypomastigotes; 48 h, 6.25 µM, untreated 141819
  RLU Average, trypomastigote viability: 13088 RLU
T. cruzi trypomastigotes; 48 h, 12.5 µM, untreated 141819
  RLU Average, trypomastigote viability: 3643 RLU
T. cruzi trypomastigotes; 48 h, 25 µM, untreated 141819
  RLU Average, trypomastigote viability: 1831 RLU
T. cruzi trypomastigotes; 48 h, 50 µM, untreated 141819
  RLU Average, trypomastigote viability: 1028 RLU
T. cruzi trypomastigotes; 72 h, 0.0976562 µM, untreated 100126
  RLU Average, trypomastigote viability: 104132 RLU
T. cruzi trypomastigotes; 72 h, 0.195312 µM, untreated 100126
  RLU Average, trypomastigote viability: 98515 RLU
T. cruzi trypomastigotes; 72 h, 0.390625 µM, untreated 100126
  RLU Average, trypomastigote viability: 89377 RLU
T. cruzi trypomastigotes; 72 h, 0.78125 µM, untreated 100126
  RLU Average, trypomastigote viability: 67508 RLU
T. cruzi trypomastigotes; 72 h, 1.5625 µM, untreated 100126
  RLU Average, trypomastigote viability: 34320 RLU
T. cruzi trypomastigotes; 72 h, 3.125 µM, untreated 100126
  RLU Average, trypomastigote viability: 15352 RLU
T. cruzi trypomastigotes; 72 h, 6.25 µM, untreated 100126
  RLU Average, trypomastigote viability: 4824 RLU
T. cruzi trypomastigotes; 72 h, 12.5 µM, untreated 100126
  RLU Average, trypomastigote viability: 2711 RLU
T. cruzi trypomastigotes; 72 h, 25 µM, untreated 100126
  RLU Average, trypomastigote viability: 1262 RLU
T. cruzi trypomastigotes; 72 h, 50 µM, untreated 100126
  RLU Average, trypomastigote viability: 683 RLU
T. cruzi trypomastigotes; 24 h
  EC50: 8940 nM
  Hill slope: 3.93
T. cruzi trypomastigotes; 48 h
  EC50: 2050 nM
  Hill slope: 1.66
T. cruzi trypomastigotes; 72 h
  EC50: 1150 nM
  Hill slope: 2.07
T. cruzi trypomastigotes; 48 h, listed as benznidazole
  Hill slope: below 2.1
T. cruzi trypomastigotes; 72 h, listed as benznidazole
  Hill slope: below 2.1
[1]; 24 h
  Hill slope: 1.06
  EC50: 2870 nM
[1]; 48 h
  Hill slope: 1.24
  EC50: 1030 nM
[1]; 72 h
  Hill slope: 1.99
  EC50: 890 nM
[2]; 30 mg/kg
  Total counts, individual mouse: 4950000 and 268000 and 48200 and 38100
[2]; vehicle average 8050000
  Total counts, Average: 1330000
T. cruzi epimastigotes; EC30
  Foward Scatter (FSC) - Geometric Mean, single experiment: 93.4 and 92.7
T. cruzi epimastigotes; EC30, control 96.65
  Foward Scatter (FSC) - Geometric Mean, Average: 93.05
T. cruzi epimastigotes; EC70
  Foward Scatter (FSC) - Geometric Mean, single experiment: 96.7 and 91.2
T. cruzi epimastigotes; EC70, control 96.65
  Foward Scatter (FSC) - Geometric Mean, Average: 93.95
T. cruzi epimastigotes; EC90
  Foward Scatter (FSC) - Geometric Mean, single experiment: 75.3 and 74.1
T. cruzi epimastigotes; EC90, control 96.65
  Foward Scatter (FSC) - Geometric Mean, Average: 74.7

## C/C1=C\[C@H](C)[C@@H](O)C[C@@H](O)/C(C)=C/[C@H](C)C[C@@H](C)CC[C@@H]([C@@H](C)C(=O)O)OC(=O)[C@@H](C)C1 [Strasseriolide D, strasseriolide D]
[3]
  liver microsome clearance: low
Plasmodium berghei
  in vivo antiprotozoal activity: exhibit in vivo antiprotozoal activity
T. cruzi epimastigotes; [4]
  % Cells G1, Average: 48.0485%
  % Cells G2/M, Average: 33.3241%
  % Cells S, Average: 15.9233%
  % Cells post G2/M, Average: 0.01106%
  % Cells sub-G1, Average: 2.693%
T. cruzi epimastigotes; [5]
  % Cells G1, individual replicates: 50.4058% and 45.6911%
  % Cells G2/M, individual replicates: 32.7574% and 33.8908%
  % Cells S, individual replicates: 14.3321% and 17.5145%
  % Cells post G2/M, individual replicates: 0.6783% and -0.6562%
  % Cells sub-G1, individual replicates: 1.8263% and 3.56%
T. cruzi epimastigotes; [6]
  % Cells G1, Average: 50.7294%
  % Cells G2/M, Average: 37.5216%
  % Cells S, Average: 12.1278%
  % Cells sub-G1, Average: 1.9646%
T. cruzi epimastigotes; [7]
  % Cells G1, individual replicates: 49.2764% and 52.1825%
  % Cells G2/M, individual replicates: 34.0219% and 41.0212%
  % Cells S, individual replicates: 15.873% and 8.383%
  % Cells post G2/M, individual replicates: -1.15% and -3.537%
  % Cells sub-G1, individual replicates: 1.978% and 1.951%
T. cruzi epimastigotes; EC30
  Foward Scatter (FSC) - Geometric Mean, single experiment: 81.9 and 80.4
T. cruzi epimastigotes; EC30, control 96.65
  Foward Scatter (FSC) - Geometric Mean, Average: 81.15
T. cruzi epimastigotes; EC70
  Foward Scatter (FSC) - Geometric Mean, single experiment: 77.8 and 72.2
T. cruzi epimastigotes; EC70, control 96.65
  Foward Scatter (FSC) - Geometric Mean, Average: 75
T. cruzi epimastigotes; at EC30
  size reduction with respect to untreated parasites: 16%
T. cruzi epimastigotes; at EC70
  size reduction with respect to untreated parasites: 24%
